Experimental data taken from the Deep4Chem optical property database.
Values joined by “and” are separate entries in the source; they are usually repeats but may differ in a detail not shown here. Identical values can stand only once. Blank lines part the entries; values can stand above or below the compound they belong to.

Experiment: photoluminescence quantum yield (fraction); solvent given as SMILES
[1] = in O=P(c1ccccc1)(c1ccccc1)c1ccccc1Oc1ccccc1P(=O)(c1ccccc1)c1ccccc1

Structure (SMILES): CN(C)c1ccc(/C=C/c2nc3ccccc3o2)cc1
- photoluminescence quantum yield (in C1CCCCC1): 0.005
- photoluminescence quantum yield (in CO): 0.007

Structure (SMILES): COC(=O)[C@]12N=N[C@](C(=O)OC)(C3C4C5C4C5C31)C1C3C4C3C4C12 (stereo partly specified)
- photoluminescence quantum yield (in CC#N): 0.039

Structure (SMILES): c1cc2c3c(cccc3c1)C(N1CCOCCOCCN(C3=Nc4cccc5cccc3c45)CCOCC1)=N2
- photoluminescence quantum yield (in CC#N): 0.0051

Structure (SMILES): Cc1ccc(C2=C3C=CC([Te]c4ccccc4)=[N+]3[B-](F)(F)n3c([Te]c4ccccc4)ccc32)cc1
- photoluminescence quantum yield (in C1CCOC1): 0.01

Structure (SMILES): COc1cc(-c2nc3c4cccnc4c4ncccc4c3[nH]2)c(OC)cc1/C=C/c1nc2ccccc2[nH]1
- photoluminescence quantum yield (in C1CCOC1): 0.75
- photoluminescence quantum yield (in CC#N): 0.43
- photoluminescence quantum yield (in CO): 0.21
- photoluminescence quantum yield (in ClCCl): 0.62

Structure (SMILES): c1ccc(-c2ccccc2)cc1
- photoluminescence quantum yield (in C1CCCCC1): 0.25
- photoluminescence quantum yield (in C1COCCO1): 0.18

Structure (SMILES): CCC1(CC)c2cc(C#Cc3cccs3)ccc2-c2c1c1c(c3c2C(CC)(CC)c2cc(C#Cc4cccs4)ccc2-3)C(CC)(CC)c2cc(C#Cc3cccs3)ccc2-1
- photoluminescence quantum yield (in C1CCOC1): 0.58

Structure (SMILES): CCCCCCN(CCCCCC)c1ccc(C#Cc2ccc(/C=C/c3ccc(-c4ccc(/C=C/c5ccc(C#Cc6ccc(N(CCCCCC)CCCCCC)cc6)cc5)cc4)cc3)cc2)cc1
- photoluminescence quantum yield (in Cc1ccccc1): 0.8

Structure (SMILES): C(=C\c1ccc(/C=C/c2ccc(N(c3ccccc3)c3ccccc3)cc2)cc1)/c1ccc(/C=C/c2ccc(N(c3ccccc3)c3ccccc3)cc2)cc1
- photoluminescence quantum yield (in ClCCl): 0.84

Structure (SMILES): c1cc2c3c(cccc3c1)C(N1CCOCCNCCOCCOCC1)=N2
- photoluminescence quantum yield (in CC#N): 0.0046

Structure (SMILES): CCNc1cc2c(cc1C)C(c1ccccc1C(=O)O)=C1CCCC(/C=C/C3=[N+](C)c4ccccc4C3(C)C)=C1O2
- photoluminescence quantum yield (in CC#N): 0.32
- photoluminescence quantum yield (in CCO): 0.56
- photoluminescence quantum yield (in CO): 0.55
- photoluminescence quantum yield (in ClC(Cl)Cl): 0.54

Structure (SMILES): F[B-]1(F)n2c(-c3cccs3)cc(-c3cccs3)c2N=C2C(c3cccs3)=CC(c3cccs3)=[N+]21
- photoluminescence quantum yield (in C1CCOC1): 0.12
- photoluminescence quantum yield (in CC#N): 0.11
- photoluminescence quantum yield (in CS(C)=O): 0.13
- photoluminescence quantum yield (in Cc1ccccc1): 0.1
- photoluminescence quantum yield (in ClCCl): 0.12 and 0.11

Structure (SMILES): Cn1nc(-c2ccccc2)c2nc3cc(F)ccc3nc21
- photoluminescence quantum yield (in C1CCCCC1): 0.61
- photoluminescence quantum yield (in C1CCOC1): 0.38
- photoluminescence quantum yield (in CC#N): 0.11

Structure (SMILES): COc1ccc2c(c1)-c1cc(OC)ccc1C2=O
- photoluminescence quantum yield (in C1CCCCC1): 0.0028
- photoluminescence quantum yield (in CC#N): 0.028
- photoluminescence quantum yield (in CCO): 0.002

Structure (SMILES): Cc1cc(-c2nnc(-c3c(C(C)C)cc(C(C)C)cc3C(C)C)o2)ccc1-n1c2ccccc2c2ccccc21
- photoluminescence quantum yield (in Cc1ccccc1): 0.38

Structure (SMILES): CCCCCCc1ccsc1-c1cc2c3cc(-c4sccc4CCCCCC)c4nc(C(F)(F)C(F)(F)C(F)(F)F)nc5c(-c6sccc6CCCCCC)cc(c6cc(-c7sccc7CCCCCC)c7nc(C(F)(F)C(F)(F)C(F)(F)F)nc1c7c26)c3c45
- photoluminescence quantum yield (in C1CCOC1): 0.65

Structure (SMILES): COc1ccc(-c2cc3c(ccc4sc5ccc6sccc6c5c43)s2)cc1
- photoluminescence quantum yield (in ClCCl): 0.12

Structure (SMILES): CC1(C)c2ccccc2N(c2ccc3c(c2)S(=O)(=O)c2cc(N4c5ccccc5C(C)(C)c5ccccc54)ccc2C3(C)C)c2ccccc21
- photoluminescence quantum yield [1]: 0.62

Structure (SMILES): CCCCn1c(-c2ccc(-c3ccc(-c4ccc(-c5n(CCCC)c6cc(C)ccc6[n+]5CCCC)cc4)cc3)cc2)[n+](CCCC)c2ccc(C)cc21
- photoluminescence quantum yield (in O): 0.78

Structure (SMILES): CC1=CC(C)=[N+]2C1=C(c1ccc(N3CCOCC3)cc1)c1c(C)cc(C)n1[B-]2(F)F
- photoluminescence quantum yield (in C1CCOC1): 0.011
- photoluminescence quantum yield (in CC#N): 0.001
- photoluminescence quantum yield (in CC(=O)C(C)(C)C): 0.063
- photoluminescence quantum yield (in CC(C)=O): 0.001
- photoluminescence quantum yield (in CCCCCC): 0.45
- photoluminescence quantum yield (in CCOC(C)=O): 0.029
- photoluminescence quantum yield (in CO): 0.002

Structure (SMILES): CNCCCN1c2ccccc2CCc2ccccc21
- photoluminescence quantum yield (in CC#N): 0.009
- photoluminescence quantum yield (in CO): 0.01
- photoluminescence quantum yield (in O): 0.012

Structure (SMILES): C#CCNC1=C2C=CC=[N+]2[B-](F)(F)n2cccc21
- photoluminescence quantum yield (in C1CCCCC1): 0.93 and 0.999
- photoluminescence quantum yield (in CC(C)=O): 0.86
- photoluminescence quantum yield (in CCCCO): 0.79
- photoluminescence quantum yield (in CCCO): 0.741
- photoluminescence quantum yield (in CCO): 0.66 and 0.6
- photoluminescence quantum yield (in CCOC(C)=O): 0.94
- photoluminescence quantum yield (in CN(C)C=O): 0.442
- photoluminescence quantum yield (in CO): 0.52
- photoluminescence quantum yield (in CS(C)=O): 0.278
- photoluminescence quantum yield (in Cc1ccccc1): 0.92
- photoluminescence quantum yield (in ClC(Cl)Cl): 0.829
- photoluminescence quantum yield (in OCC(F)(F)F): 0.88
- photoluminescence quantum yield (in c1ccccc1): 0.924

Structure (SMILES): Cc1cnc(NC(=O)C2=C(O)c3ccccc3S(=O)(=O)N2C)s1
- photoluminescence quantum yield (in C1COCCO1): 0.0133
- photoluminescence quantum yield (in CC#N): 0.0147
- photoluminescence quantum yield (in CCCCO): 0.0231
- photoluminescence quantum yield (in CCCO): 0.0164
- photoluminescence quantum yield (in CCO): 0.0106
- photoluminescence quantum yield (in CCOC(C)=O): 0.0113
- photoluminescence quantum yield (in CO): 0.00754

Structure (SMILES): N#Cc1cccc(-c2pc3ccccc3s2)c1 (stereo unspecified)
- photoluminescence quantum yield (in CC#N): 0.015

Structure (SMILES): COc1ccc2c(c1)c1c(c3cc(OC)ccc32)=[N+]2C(=C(c3c(C)cc(C)cc3C)c3cc4c5cc(OC)ccc5c5ccc(OC)cc5c4n3[B-]2(F)F)C=1
- photoluminescence quantum yield (in C1CCCCC1): 0.08
- photoluminescence quantum yield (in C1CCOC1): 0.001
- photoluminescence quantum yield (in CC#N): 0.01
- photoluminescence quantum yield (in Cc1ccccc1): 0.001
- photoluminescence quantum yield (in ClCCl): 0.001

Structure (SMILES): CC(C)c1cccc(C(C)C)c1-n1c(=O)c2cc3nc(-c4ccccc4)c4cc5c(=O)n(-c6c(C(C)C)cccc6C(C)C)c(=O)c6cc7nc(-c8ccccc8)c8cc(c1=O)c2c1c3c4c(c65)c7c81
- photoluminescence quantum yield (in ClC(Cl)Cl): 0.25

Structure (SMILES): CCC1=C(C)C2=C(c3c(C)cc(C)nc3-c3cccs3)c3c(C)c(CC)c(C)n3[B-](F)(F)[N+]2=C1C
- photoluminescence quantum yield (in C1CCCCC1): 0.53
- photoluminescence quantum yield (in C1CCOC1): 0.46
- photoluminescence quantum yield (in C1COCCO1): 0.49
- photoluminescence quantum yield (in CC#N): 0.45
- photoluminescence quantum yield (in CCCCCC): 0.52
- photoluminescence quantum yield (in CCO): 0.47
- photoluminescence quantum yield (in CCOC(C)=O): 0.47
- photoluminescence quantum yield (in CCOCC): 0.5
- photoluminescence quantum yield (in CN(C)C=O): 0.44
- photoluminescence quantum yield (in CS(C)=O): 0.44
- photoluminescence quantum yield (in Cc1ccccc1): 0.49
- photoluminescence quantum yield (in ClC(Cl)(Cl)Cl): 0.5
- photoluminescence quantum yield (in ClC(Cl)Cl): 0.49

Structure (SMILES): C=Cc1cc2ccc(OC(=O)c3ccccc3)cc2oc1=O
- photoluminescence quantum yield (in CC#N): 0.23

Structure (SMILES): CCc1c(C(=O)OC)c(C(=O)OC)c2ccc(-c3ccccc3)nn12
- photoluminescence quantum yield (in CCCCCC): 0.543

Structure (SMILES): CC(C)Nc1cc2c(cc1F)c(=O)c1cc(F)c(NC(C)C)cc1n2C(C)C
- photoluminescence quantum yield (in CCO): 0.32

Structure (SMILES): CC(C)(C)c1ccc(C2=C(c3ccc(N4c5ccccc5C(C)(C)c5ccccc54)cc3)S(=O)(=O)c3c2sc(-c2ccc(N4c5ccccc5C(C)(C)c5ccccc54)cc2)c3-c2ccc(C(C)(C)C)cc2)cc1
- photoluminescence quantum yield (in C1CCOC1): 0.021

Structure (SMILES): CCCCn1c(=O)c2cc3ccc4cccc5ccc(c2c1=O)c3c45
- photoluminescence quantum yield (in ClC(Cl)Cl): 0.52

Structure (SMILES): CC1(C)c2ccccc2N(c2ccc3c(c2)Oc2ccccc2P3(=O)c2ccccc2)c2ccccc21 (stereo unspecified)
- photoluminescence quantum yield (in Cc1ccccc1): 0.37
- photoluminescence quantum yield [1]: 0.62

Structure (SMILES): c1ccc(-c2nc(-c3ccccc3)nc(-c3ccc(-n4c5ccccc5c5ccc6c(c7ccccc7n6-c6ccccc6)c54)cc3)n2)cc1
- photoluminescence quantum yield (in O=P(c1ccccc1)(c1ccccc1)c1ccc2oc3ccc(P(=O)(c4ccccc4)c4ccccc4)cc3c2c1): 0.9

Results, then the compound that gave them:

- photoluminescence quantum yield (in ClCCl): 0.78
Structure (SMILES): c1ccc2c(-c3c4ccccc4c(-c4ccc(-n5c6ccccc6c6ccccc65)cc4)c4ccccc34)cccc2c1

- photoluminescence quantum yield (in CC#N): 0.55
- photoluminescence quantum yield (in CO): 0.05
Structure (SMILES): COc1ccc(-c2c(-c3ccc(OC)cc3)c3c4c(cccc4c2-c2ccccc2)C(=O)c2ccccc2-3)cc1

- photoluminescence quantum yield (in C1CCCCC1): 0.33
- photoluminescence quantum yield (in C1CCOC1): 0.22
- photoluminescence quantum yield (in C1COCCO1): 0.24
- photoluminescence quantum yield (in CC#N): 0.21
- photoluminescence quantum yield (in CCCCCC): 0.32
- photoluminescence quantum yield (in CO): 0.17
- photoluminescence quantum yield (in ClC(Cl)Cl): 0.24
Structure (SMILES): F[B-]1(F)n2c(-c3ccccc3)cnc2-c2cccc[n+]21

- photoluminescence quantum yield (in C1CCCCC1): 0.94
Structure (SMILES): COc1cccc(OC)c1-c1c2ccccc2c(-c2c(OC)cccc2OC)c2ccccc12

- photoluminescence quantum yield (in CCO): 0.292
- photoluminescence quantum yield (in O): 0.058
Structure (SMILES): Cc1cc2nc3cc(C)c(N)cc3[n+](-c3ccccc3)c2cc1N

- photoluminescence quantum yield (in ClCCl): 0.3
Structure (SMILES): Cc1ccc(C2=Nc3cccc4[n+]3[B-](F)(O2)OC(c2ccc(C)cc2)=N4)cc1

- photoluminescence quantum yield (in CO): 0.58
- photoluminescence quantum yield (in CS(C)=O): 0.63
Structure (SMILES): CCC1=C(C)C2=Cc3c4ccccc4c4n3[B-](c3cc[n+](C)cc3)(Oc3ccccc3-4)[N+]2=C1C (stereo unspecified)

- photoluminescence quantum yield (in C1CCCCC1): 0.56
- photoluminescence quantum yield (in C1CCOC1): 0.65
- photoluminescence quantum yield (in C1COCCO1): 0.6
- photoluminescence quantum yield (in CC#N): 0.41
- photoluminescence quantum yield (in CCCCCCC): 0.43
- photoluminescence quantum yield (in CCO): 0.49
- photoluminescence quantum yield (in CN(C)C=O): 0.6
- photoluminescence quantum yield (in CO): 0.34
- photoluminescence quantum yield (in O): 0.18
- photoluminescence quantum yield (in OCCO): 0.45
Structure (SMILES): Cc1nn(-c2ccccc2)c(C2=NN(c3ccc(Br)cc3)[C@@H](c3ccccc3)[C@@H]2c2ccccc2)c1C#N

- photoluminescence quantum yield (in ClCCl): 0.56
Structure (SMILES): c1ccc([Si]2(c3ccccc3)c3ccccc3-c3cc4c(cc32)-c2ccccc2[Si]4(c2ccccc2)c2ccccc2)cc1

- photoluminescence quantum yield (in C1CCOC1): 0.046
Structure (SMILES): N#Cc1ccc(C=C(c2ccccc2)c2ccccc2)cc1

- photoluminescence quantum yield (in CO): 0.87
Structure (SMILES): CCN(CC)c1ccc(C2=C3C(C)=CC(/C=C/c4ccc(OCC(=O)OC)cc4)=[N+]3[B-](F)(F)n3c(C)cc(C)c32)cc1

- photoluminescence quantum yield (in ClC(Cl)Cl): 0.65
Structure (SMILES): CC1=CC(C)=[N+]2C1=C(c1ccc(I)cc1)c1c(C)cc(C)n1[B-]2(OCc1ccccc1)OCc1ccccc1

- photoluminescence quantum yield (in c1cc(-n2c3ccccc3c3ccccc32)cc(-n2c3ccccc3c3ccccc32)c1): 0.37
Structure (SMILES): N#Cc1cc(-n2c3ccccc3c3cccnc32)c(-n2c3ccccc3c3cccnc32)cc1C#N

- photoluminescence quantum yield (in CC#N): 0.9 and 0.66
Structure (SMILES): Cn1c(-c2ccc(-c3nc(-c4ccccc4)c(-c4ccccc4)n3C)cc2)nc(-c2ccccc2)c1-c1ccccc1

- photoluminescence quantum yield (in ClCCl): 0.27
Structure (SMILES): Cc1cn2cc(-c3ccc(-c4ccccc4)cc3)[n-][n+]2c1
